Values quoted from earlier work, collected in patent US6124256A, “Method for the prevention of a patient's fibroproliferative vasculopathy” (priority 1998, dated 2000).

Columns and labels:
[1] = target: T1, SSTR2 (Homo sapiens, UniProt P30874)
Target sequence in this assay (P30874 whole entry, species assumed): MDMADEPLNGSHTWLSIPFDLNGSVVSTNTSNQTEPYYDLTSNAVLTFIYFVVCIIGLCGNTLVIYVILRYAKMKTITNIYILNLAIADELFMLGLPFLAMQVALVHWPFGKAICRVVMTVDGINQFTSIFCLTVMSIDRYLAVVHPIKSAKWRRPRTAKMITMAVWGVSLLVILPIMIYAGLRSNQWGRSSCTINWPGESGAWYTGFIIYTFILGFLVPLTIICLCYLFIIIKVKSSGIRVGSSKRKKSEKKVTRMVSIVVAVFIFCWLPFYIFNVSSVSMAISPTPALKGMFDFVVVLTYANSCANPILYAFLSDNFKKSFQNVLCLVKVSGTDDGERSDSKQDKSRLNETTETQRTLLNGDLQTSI

[2] = test system: dysplastic lesions; settings: arterial, venous and vascular transplant models, various animal species; results inconsistent between models
[3] = target: T2, hSSTR1 (Homo sapiens, UniProt P30872); settings: human receptor in transfected CHO cell lines; read-out: binding affinities Ki hSSTR1
T2 construct: expressed in transfected cells; host or cells: CHO
T2 sequence (P30872 whole entry): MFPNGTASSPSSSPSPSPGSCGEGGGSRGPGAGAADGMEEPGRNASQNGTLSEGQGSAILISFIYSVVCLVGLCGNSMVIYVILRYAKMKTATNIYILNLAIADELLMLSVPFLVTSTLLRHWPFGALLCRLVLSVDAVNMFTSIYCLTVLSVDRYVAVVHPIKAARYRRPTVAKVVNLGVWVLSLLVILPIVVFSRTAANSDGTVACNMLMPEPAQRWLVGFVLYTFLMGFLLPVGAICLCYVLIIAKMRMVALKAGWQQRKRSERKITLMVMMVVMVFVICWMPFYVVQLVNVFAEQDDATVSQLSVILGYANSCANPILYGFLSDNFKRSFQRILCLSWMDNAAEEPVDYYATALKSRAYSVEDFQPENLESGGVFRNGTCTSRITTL

[4] = test system: restenosis; settings: randomized placebo controlled clinical trials; quantitated by angiography or as clinical events
[5] = target: T3, hSSTR3 (Homo sapiens, UniProt P32745)
T3 sequence (P32745 whole entry): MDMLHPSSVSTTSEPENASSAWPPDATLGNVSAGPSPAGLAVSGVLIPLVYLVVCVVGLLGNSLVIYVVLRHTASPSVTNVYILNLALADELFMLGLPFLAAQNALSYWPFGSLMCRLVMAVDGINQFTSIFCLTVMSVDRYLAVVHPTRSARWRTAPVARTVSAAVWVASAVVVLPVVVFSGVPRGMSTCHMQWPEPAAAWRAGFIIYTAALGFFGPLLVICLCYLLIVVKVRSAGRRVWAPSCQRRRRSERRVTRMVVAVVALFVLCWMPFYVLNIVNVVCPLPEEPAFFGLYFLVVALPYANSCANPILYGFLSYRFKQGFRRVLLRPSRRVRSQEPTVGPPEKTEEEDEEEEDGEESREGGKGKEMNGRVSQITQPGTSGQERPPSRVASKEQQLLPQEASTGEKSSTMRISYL

[6] = test system: SSTR3, the rodent receptor
[7] = target: T4, hSTR5 (Homo sapiens, UniProt P35346); settings: human receptor in transfected CHO cell lines; read-out: binding affinities Ki hSTR5
T4 construct: expressed in transfected cells; host or cells: CHO
T4 sequence (P35346 whole entry): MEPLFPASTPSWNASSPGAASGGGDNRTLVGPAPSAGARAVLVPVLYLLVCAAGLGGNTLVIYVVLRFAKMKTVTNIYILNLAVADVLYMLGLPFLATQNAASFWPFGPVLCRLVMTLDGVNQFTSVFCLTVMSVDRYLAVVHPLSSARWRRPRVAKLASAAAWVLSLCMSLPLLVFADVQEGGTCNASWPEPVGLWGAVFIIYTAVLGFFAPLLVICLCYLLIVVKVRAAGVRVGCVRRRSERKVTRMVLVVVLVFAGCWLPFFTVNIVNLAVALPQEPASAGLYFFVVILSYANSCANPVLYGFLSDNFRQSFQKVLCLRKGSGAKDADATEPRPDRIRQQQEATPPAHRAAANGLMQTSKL

[8] = target: T5, hSSTR4 (Homo sapiens, UniProt P31391); settings: human receptor in transfected CHO cell lines; read-out: binding affinities Ki hSSTR4
T5 construct: expressed in transfected cells; host or cells: CHO
T5 sequence (P31391 whole entry): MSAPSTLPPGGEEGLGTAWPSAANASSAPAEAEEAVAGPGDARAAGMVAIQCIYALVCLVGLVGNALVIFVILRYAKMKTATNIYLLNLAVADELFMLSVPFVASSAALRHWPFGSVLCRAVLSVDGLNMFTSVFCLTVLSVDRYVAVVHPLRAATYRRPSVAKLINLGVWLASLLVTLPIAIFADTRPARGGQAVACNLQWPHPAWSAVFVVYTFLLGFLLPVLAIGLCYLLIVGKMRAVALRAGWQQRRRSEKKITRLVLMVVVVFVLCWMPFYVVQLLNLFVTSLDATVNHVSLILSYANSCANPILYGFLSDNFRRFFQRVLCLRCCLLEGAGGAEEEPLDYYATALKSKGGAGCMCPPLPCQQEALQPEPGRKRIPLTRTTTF

[9] = target: T3, hSSTR3; parameters: expressed in transfected cells; host or cells: CHO; settings: human receptor in transfected CHO cell lines; read-out: binding affinities Ki hSSTR3
[10] = target: T1, SSTR2; parameters: expressed in transfected cells; host or cells: CHO; settings: human receptor in transfected CHO cell lines; read-out: binding affinities Ki hSSTR2
Target sequence in this assay (P30874 whole entry): as the sequence (P30874 whole entry, species assumed) above

| Molecule | affinity to SSTR2 (in words) [1] | formation of dysplastic lesions [2] | Ki [3] | prevention of restenosis after percutaneous transluminal angioplasty [4] | binding to human SSTR3 (in words) [5] | affinity for the rodent SSTR3 receptor (in words) [6] | Ki [7] | Ki [8] | Ki [9] | Ki [10] |
| --- | --- | --- | --- | --- | --- | --- | --- | --- | --- | --- |
| CC(C)[C@@H]1NC(=O)[C@H](CCCCN)NC(=O)[C@@H](Cc2c[nH]c3ccccc23)NC(=O)[C@H](Cc2ccc(O)cc2)NC(=O)[C@@H](NC(=O)[C@H](N)Cc2ccc3ccccc3c2)CSSC[C@@H](C(=O)N[C@H](C(N)=O)[C@@H](C)O)NC1=O [Lanreotide, lanreotide] | high affinity | prevents the formation of dysplastic lesions | > 1000 nM | in some studies has been shown to prevent restenosis | – | – | – | – | – | – |
| C[C@@H](O)[C@@H]1NC(=O)[C@H](CCCCN)NC(=O)[C@@H](Cc2c[nH]c3ccccc23)NC(=O)[C@H](Cc2ccccc2)NC(=O)[C@@H](NC(=O)[C@H](N)Cc2ccccc2)CSSC[C@@H](C(=O)N[C@H](CO)[C@@H](C)O)NC1=O [Octeoride, octreotide] | high affinity | prevents the formation of dysplastic lesions | – | the same therapeutic response has not been achieved | binds well | only moderate affinity | – | – | – | – |
| desAA^1.2.5 [D-Trp^6 -N-p-isopropyl-4-aminomethyl-L-phenylalanine]-SST14 [DADI-SST14] | – | – | 3.2 nM | – | – | – | > 1000 nM | 4.3 nM | > 1000 nM | > 1000 nM |
